Assay [1] deals with RAW264.7. In words: Inhibition of NO production in LPS-stimulated mouse RAW264.7 cells preincubated with compound for 1 hrs followed by LPS stimulation and measured after 24 hrs by Griess reagent-based assay. The assay is classed as functional, cell-based. (In general: The Griess reaction detects nitrite, a stable product of nitric oxide.)
Assay [2] deals with RAW264.7. Put plainly: Antiinflammatory activity against LPS-stimulated mouse RAW264.7 cells assessed as reduction in COX-2 protein expression at 10 uM relative to control. The class given is functional. The arrangement: scale not given: the % may be the effect or the level left.
Assay [3] has as its system RAW264.7. Put plainly: Antiinflammatory activity against LPS-stimulated mouse RAW264.7 cells assessed as reduction in iNOS protein expression at 10 uM relative to control. The class given is functional. The arrangement: scale not given: the % may be the effect or the level left.
The nature of assay [4]: Antiinflammatory activity in rat polymorphonuclear leucocyte cells assessed as inhibition of PAF-induced beta-glucuronidase release at 10 uM preincubated for 20 mins followed by PAF addition relative to control. The class given is functional.
Assay [5] in a line: Inhibition of NO production in LPS-induced mouse N9 cells incubated for 48 hrs by griess reagent based assay. The assay is classed as functional, cell-based. Particulars: N9, 48 h.
Assay [6] deals with Mus musculus. In words: Antiinflammatory activity in carrageenan-induced peritoneal Swiss albino mouse model assessed as decrease in number of leukocyte cells at 100 umol/kg, po pre-treated for 30 mins followed by carrageenan induction and measured after 4 hrs relative to control. The assay is classed as functional. The arrangement: scale not given: the % may be the effect or the level left. Particulars: dose 100 µmol/kg, time 4.5 hrs.

The subject of assay [7] is Mus musculus. In words: Antiinflammatory activity against capsaicin-induced ear edema Swiss albino mouse model assessed as inhibition of plasma extravasation at 100 umol/kg, po pre-treated with compound for 40 mins followed by capsaicin stimulation and measured after 30 mins relative to control. The class given is functional.
Assay [8] relates to Mus musculus. In words: Antiinflammatory activity in mouse assessed as inhibition of xylene-induced ear edema at 10 mg/kg, IG pre-treated for 30 mins followed by xylene administration and measured after 1 hrs relative to control. The class given is functional. The note with it: po, time 1.5 hrs.
The target in assay [9] is T1, Polyunsaturated fatty acid 5-lipoxygenase (Homo sapiens) (UniProt P09917).
T1 sequence (whole entry): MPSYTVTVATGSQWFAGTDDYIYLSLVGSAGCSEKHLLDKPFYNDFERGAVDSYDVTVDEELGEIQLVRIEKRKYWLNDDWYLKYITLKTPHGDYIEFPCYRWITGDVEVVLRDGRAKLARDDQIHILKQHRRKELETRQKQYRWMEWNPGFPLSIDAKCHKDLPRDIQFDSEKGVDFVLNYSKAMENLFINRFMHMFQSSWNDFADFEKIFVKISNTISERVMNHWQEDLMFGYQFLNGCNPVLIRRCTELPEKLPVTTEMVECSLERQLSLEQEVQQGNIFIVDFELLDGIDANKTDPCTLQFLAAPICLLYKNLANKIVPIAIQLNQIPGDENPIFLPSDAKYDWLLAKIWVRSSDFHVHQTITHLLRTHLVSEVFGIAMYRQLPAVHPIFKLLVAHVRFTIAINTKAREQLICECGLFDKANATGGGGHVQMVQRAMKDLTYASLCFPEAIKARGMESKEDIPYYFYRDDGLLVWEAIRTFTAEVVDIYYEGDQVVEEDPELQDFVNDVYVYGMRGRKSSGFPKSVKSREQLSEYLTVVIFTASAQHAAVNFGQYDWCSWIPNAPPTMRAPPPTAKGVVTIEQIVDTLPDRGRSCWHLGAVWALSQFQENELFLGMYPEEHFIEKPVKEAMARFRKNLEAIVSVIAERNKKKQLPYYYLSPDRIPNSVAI
Put plainly: Inhibition of 5-LOX (unknown origin) at 100 uM measured after 5 mins by colorimetric method relative to control.

Assay [10] concerns the target T2, Acid-sensing ion channel 1 (Rattus norvegicus) (UniProt P55926).
T2 sequence (whole entry): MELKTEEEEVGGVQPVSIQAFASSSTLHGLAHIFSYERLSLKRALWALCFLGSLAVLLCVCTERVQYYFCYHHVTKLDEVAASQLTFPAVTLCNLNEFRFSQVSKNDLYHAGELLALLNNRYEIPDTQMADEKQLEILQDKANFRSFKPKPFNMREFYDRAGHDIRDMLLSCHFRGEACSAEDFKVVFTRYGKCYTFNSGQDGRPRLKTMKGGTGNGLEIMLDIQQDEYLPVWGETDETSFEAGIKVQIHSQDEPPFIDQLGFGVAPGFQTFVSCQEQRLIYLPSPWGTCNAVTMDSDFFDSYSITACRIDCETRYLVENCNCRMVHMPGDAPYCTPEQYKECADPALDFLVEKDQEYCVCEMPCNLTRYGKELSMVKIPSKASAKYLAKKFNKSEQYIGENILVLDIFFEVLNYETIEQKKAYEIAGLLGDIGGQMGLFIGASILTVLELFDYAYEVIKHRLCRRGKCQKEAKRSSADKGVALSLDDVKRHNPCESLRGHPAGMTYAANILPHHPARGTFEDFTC
Put plainly: Inhibition of rat ASIC1a ion channel expressed in Xenopus laevis oocytes in pH 6.9 buffer at -50 mV holding potential by voltage clamp electrophysiology recording. The assay is classed as cell-based.

The target of assay [11] is T2, Acid-sensing ion channel 1 (Rattus norvegicus). In words: Inhibition of rat ASIC1a ion channel expressed in Xenopus laevis oocytes in pH 6.7 buffer at -50 mV holding potential by voltage clamp electrophysiology recording. The assay is classed as cell-based.
For assay [12] the target is unchanged. In words: Inhibition of rat ASIC1a ion channel expressed in Xenopus laevis oocytes in pH 6.5 buffer at -50 mV holding potential by voltage clamp electrophysiology recording. The assay is classed as cell-based.
Assay [13] deals with Mus musculus. Put plainly: Antiinflammatory activity in mouse assessed as inhibition of xylene-induced ear edema at 5 mg/kg, IG pre-treated for 30 mins followed by xylene administration and measured after 1 hrs relative to control. The assay is classed as functional. The note with it: po, time 1.5 hrs.
Assay [14] concerns RAW264.7. Put plainly: Inhibition of NO production in LPS-stimulated mouse RAW264.7 cells at 100 uM incubated for 18 hrs by Griess reagent-based assay. The assay is classed as functional.
The target of assay [15] is Nuclear factor NF-kappa-B complex (Homo sapiens) (UniProt Q00653+P19838+Q04206). Put plainly: Inhibition of TNF-alpha induced NFkappaB activation in HEK293 cells at 100 uM pretreated for 15 mins followed by stimulation with human recombinant TNFalpha and measured after 6 hrs by luminescence based assay relative to control. The class given is cell-based. The note with it: time 375.0 min.
Nuclear factor NF-kappa-B complex (Homo sapiens), sequence (P19838 whole entry, looked up): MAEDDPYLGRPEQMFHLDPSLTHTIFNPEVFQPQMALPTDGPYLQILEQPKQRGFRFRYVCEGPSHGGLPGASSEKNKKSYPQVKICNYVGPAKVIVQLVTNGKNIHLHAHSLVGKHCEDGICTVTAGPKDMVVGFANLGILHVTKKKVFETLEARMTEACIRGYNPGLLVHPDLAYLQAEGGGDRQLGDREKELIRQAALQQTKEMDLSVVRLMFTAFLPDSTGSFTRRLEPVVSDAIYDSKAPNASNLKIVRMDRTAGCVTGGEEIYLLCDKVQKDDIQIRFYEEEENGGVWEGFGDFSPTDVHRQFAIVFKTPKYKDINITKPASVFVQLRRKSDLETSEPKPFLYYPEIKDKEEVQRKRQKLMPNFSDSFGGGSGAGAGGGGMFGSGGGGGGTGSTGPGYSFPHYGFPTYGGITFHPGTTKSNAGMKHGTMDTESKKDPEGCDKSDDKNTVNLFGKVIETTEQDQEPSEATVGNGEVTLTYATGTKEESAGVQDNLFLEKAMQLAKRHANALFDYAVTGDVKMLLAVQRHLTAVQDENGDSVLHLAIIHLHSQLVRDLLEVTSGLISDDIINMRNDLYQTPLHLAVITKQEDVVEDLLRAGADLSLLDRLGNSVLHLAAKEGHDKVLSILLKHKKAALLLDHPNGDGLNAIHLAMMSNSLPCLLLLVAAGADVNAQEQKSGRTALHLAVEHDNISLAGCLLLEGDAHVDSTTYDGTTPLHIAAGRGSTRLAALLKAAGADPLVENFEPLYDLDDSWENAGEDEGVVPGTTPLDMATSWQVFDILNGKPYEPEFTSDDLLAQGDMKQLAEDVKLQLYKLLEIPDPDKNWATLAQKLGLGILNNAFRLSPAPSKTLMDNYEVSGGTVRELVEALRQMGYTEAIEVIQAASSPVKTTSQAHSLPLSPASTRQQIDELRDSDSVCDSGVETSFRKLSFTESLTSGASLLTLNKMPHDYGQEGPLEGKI
Nuclear factor NF-kappa-B complex (Homo sapiens), sequence (Q00653 whole entry, looked up): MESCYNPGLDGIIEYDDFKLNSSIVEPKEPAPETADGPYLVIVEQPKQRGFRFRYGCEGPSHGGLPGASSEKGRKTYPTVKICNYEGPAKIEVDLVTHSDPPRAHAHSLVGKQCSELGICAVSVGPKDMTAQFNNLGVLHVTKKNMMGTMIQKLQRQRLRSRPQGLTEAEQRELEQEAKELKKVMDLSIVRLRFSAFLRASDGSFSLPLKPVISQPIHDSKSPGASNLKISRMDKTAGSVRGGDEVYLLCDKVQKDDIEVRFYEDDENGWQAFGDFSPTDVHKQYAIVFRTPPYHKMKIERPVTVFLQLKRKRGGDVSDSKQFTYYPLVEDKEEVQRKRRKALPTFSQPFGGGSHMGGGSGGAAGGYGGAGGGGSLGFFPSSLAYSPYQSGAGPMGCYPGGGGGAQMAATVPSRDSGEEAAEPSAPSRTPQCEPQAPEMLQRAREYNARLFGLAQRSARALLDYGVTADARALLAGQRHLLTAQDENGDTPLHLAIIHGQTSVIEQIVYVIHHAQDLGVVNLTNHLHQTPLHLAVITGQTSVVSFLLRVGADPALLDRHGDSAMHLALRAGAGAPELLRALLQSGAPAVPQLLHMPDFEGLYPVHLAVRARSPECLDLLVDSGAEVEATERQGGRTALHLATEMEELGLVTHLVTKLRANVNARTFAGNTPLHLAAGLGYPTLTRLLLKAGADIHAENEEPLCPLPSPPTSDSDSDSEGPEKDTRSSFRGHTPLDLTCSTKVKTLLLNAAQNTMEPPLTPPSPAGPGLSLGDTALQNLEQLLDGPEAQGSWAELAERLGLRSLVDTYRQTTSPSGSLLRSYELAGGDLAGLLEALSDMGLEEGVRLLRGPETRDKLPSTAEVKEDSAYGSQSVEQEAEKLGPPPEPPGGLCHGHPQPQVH
Nuclear factor NF-kappa-B complex (Homo sapiens), sequence (Q04206 whole entry, looked up): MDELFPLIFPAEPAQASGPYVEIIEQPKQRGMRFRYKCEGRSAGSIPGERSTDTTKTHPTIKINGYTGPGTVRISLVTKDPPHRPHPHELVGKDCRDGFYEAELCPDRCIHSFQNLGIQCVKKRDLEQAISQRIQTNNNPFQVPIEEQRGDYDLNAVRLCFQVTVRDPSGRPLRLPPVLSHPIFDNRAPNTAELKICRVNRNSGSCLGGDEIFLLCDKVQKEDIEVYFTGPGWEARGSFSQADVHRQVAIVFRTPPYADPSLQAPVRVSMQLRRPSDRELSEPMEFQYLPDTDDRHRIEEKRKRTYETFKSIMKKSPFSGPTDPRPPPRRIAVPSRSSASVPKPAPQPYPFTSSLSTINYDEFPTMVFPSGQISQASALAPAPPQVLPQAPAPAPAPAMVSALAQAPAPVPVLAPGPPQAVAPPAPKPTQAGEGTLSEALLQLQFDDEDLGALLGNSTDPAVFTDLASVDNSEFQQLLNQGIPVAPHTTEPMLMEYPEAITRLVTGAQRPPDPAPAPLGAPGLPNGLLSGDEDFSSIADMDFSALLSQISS

Assay [16] can be described thus: Inhibition of NO production in LPS-stimulated mouse BV-2 cells preincubated with compound for 1 hrs followed by LPS stimulation and measured after 24 hrs by Griess reagent-based assay. The assay is classed as functional, cell-based.
A short description of assay [17]: Inhibition of LPS-induced NO production in mouse BV-2 cells […]. The class given is functional, cell-based. In general terms: Tetrazolium dyes change colour on reduction, which living cells bring about.
For assay [18], the system named is RAW264.7. In words: Inhibition of NO production in LPS-stimulated mouse RAW264.7 cells preincubated with compound for 30 mins followed by LPS stimulation and measured after 24 hrs by Griess reagent-based assay. The class given is functional, cell-based.
Assay [19] can be described thus: Inhibition of TNF-alpha production in LPS-stimulated human PBMC cells. The class given is functional, cell-based.
The nature of assay [20]: Inhibition of IL6 production in LPS-stimulated human PBMC cells. The assay is classed as functional, cell-based.

Molecules are shown by their SMILES.

A word on the IC50: it is the midpoint of a concentration-inhibition curve. Turning to `O=C1CC[C@H]2c3[nH]c4ccc(O)cc4c3CCN12`, the IC50 in assay [1] was 25.2 µM.

For the compound `CSc1[nH]c2cc(Br)c(Br)c(Br)c2c1SC`, the Activity in [2] is 1.6%; in assay [3] it was 2.8%.

By inhibition is commonly meant the change of the read-out against control, counted positive when it falls. For the compound `COC1O[C@@H]([C@@H]2c3cc4c(cc3CCN2C)OCO4)c2ccc3c(c21)OCO3` (stereo partly specified), the inhibition at 10 µM in assay [4] was determined as 35.6%.

Compound `C=C[C@@H]1[C@@H](O[C@@H]2O[C@H](CO)[C@@H](O)[C@H](O)[C@H]2O)OC=C(C(=O)OC)[C@@H]1C[C@@H]1NCCc2c1[nH]c1ccccc21` had a concentration for half-maximal inhibition (IC50) in assay [5] of 8.3 µM.

For orientation: inhibition in vivo means the share of the control response that was lost under treatment. With `COC(=O)/C1=C/c2c([nH]c3ccccc23)/C(C(=O)OC)=C\c2c1[nH]c1ccccc21` [CAULERPIN], the Activity in [6] turned out to be 48.3%. The inhibition in vivo at 100 µmol/kg in assay [7] is 55.8%.

On to `C/C=C1/CN2[C@@H]3C[C@@]45c6ccccc6N[C@]4(O3)[C@@H]2C[C@@H]1[C@@H]5OC(C)=O`, for which the inhibition in vivo at 10 mg/kg in [8] was 41.9%. The inhibition in assay [9] was determined as 79.2%.

As for `COc1cc2c(cc1O)C(Cc1ccc(O)c(Oc3ccc(C[C@@H]4NCCc5cc(OC)c(O)cc54)cc3)c1)NCC2` (stereo partly specified), the values for the inhibition in [10], in assay [11] and in assay [12] were 98.1%, 93.7% and 69.3%, respectively.

Turning to `COC(=O)C1=C2Nc3c(O)cccc3[C@@]23CCN2C[C@@H]([C@H](C)O)[C@@H]1C[C@H]23` [SCHOLARICINE], the inhibition in vivo at 5 mg/kg in assay [13] came to 42%.

As to `COc1cc2c(cc1O)-c1cc3ccc(OC)c(OC)c3c[n+]1CC2` [COLUMBAMINE], in assay [14], the inhibition at 100 µM was 88.1%. The inhibition in assay [15] amounted to 63.2%.

`COc1cc(/C=C/C(=O)CC(=O)/C=C/c2ccc(O)c(OC)c2)ccc1O` [CURCUMIN]: the IC50 in assay [16] and in assay [17] was 0.5 µM throughout.

As to `O=C(C1C=CC(c2ccc3c(c2)OCO3)C(/C=C/c2ccc3c(c2)OCO3)C1C(=O)N1CCCCC1)N1CCCCC1` (stereo unspecified), the 50% inhibitory concentration (IC50) in assay [18] came to 6.8 µM.

`COc1cc(C)cc2c1[nH]c1ccccc12` [MURRAYAFOLINE A]: the results for the IC50 in assay [19] and in assay [20] were 7 µM and 8.4 µM, respectively.

Turning to `COc1c(O)ccc2c1cnc1c3cc4c(cc3ccc21)OCO4` [DECARINE], the IC50 in assay [18] worked out at 48.4 µM.
